In US5389627A, “Cephem compounds” (priority 1993, dated 1995):
Converted amounts (≈) assume the structure as drawn.

What was measured:
[1] = Pharmacokinetics (plasma half-life); type: in vivo; details: SD Rat, mean value, read-out: Half-Life (T1/2)
Method: In order to investigate the pharmacokinetics properties of the compounds according to the present invention, the plasma half-life was determined in accordance with the method described in Antimicrobial Agents and Chemotherapy, 26(2), p.

S.pyogenes ATCC 8668 = assay: In vitro antibacterial activity, minimum inhibitory concentration; type: cell-based; details: Streptococcus pyogenes, ATCC8668; S.pyogenes ATCC 8668; read-out: Minimum Inhibitory Concentration (MIC)
Excerpt: (§1) As reference compounds, Cefotaxime (CTX), Ceftazidime (CAZ) and Cefpirome (CPR) were employed.

S.marcescens ATCC27117 = assay: as above; type: cell-based; details: Serratia marcescens; S.marcescens ATCC27117; read-out: Minimum Inhibitory Concentration (MIC)
Excerpt: as §1

P.aeruginosa ATCC10145 = assay: as above; type: cell-based; details: Pseudomonas aeruginosa; P.aeruginosa ATCC10145; read-out: Minimum Inhibitory Concentration (MIC)
Excerpt: as §1

P.mirabilis ATCC25933 = assay: as above; type: cell-based; details: Proteus mirabilis; P.mirabilis ATCC25933; read-out: Minimum Inhibitory Concentration (MIC)
Excerpt: as §1

MRSA C2208 = assay: as above; type: cell-based; details: Staphylococcus aureus; MRSA C2208; read-out: Minimum Inhibitory Concentration (MIC)
Excerpt: as §1

S.aureus ATCC29213 = assay: as above; type: cell-based; details: Staphylococcus aureus; S.aureus ATCC29213; read-out: Minimum Inhibitory Concentration (MIC)
Excerpt: as §1

E.coli ATCC25922 = assay: as above; type: cell-based; details: Escherichia coli; E.coli ATCC25922; read-out: Minimum Inhibitory Concentration (MIC)
Excerpt: as §1

E.cloacae C4008 = assay: as above; type: cell-based; details: Enterobacter cloacae; E.cloacae C4008; read-out: Minimum Inhibitory Concentration (MIC)
Excerpt: as §1

K.pneumoniae ATCC10031 = assay: as above; type: cell-based; details: Klebsiella pneumoniae; K.pneumoniae ATCC10031; read-out: Minimum Inhibitory Concentration (MIC)
Excerpt: as §1

E.coli ATCC10536 = assay: as above; type: cell-based; details: Escherichia coli; E.coli ATCC10536; read-out: Minimum Inhibitory Concentration (MIC)
Excerpt: as §1

S.Faecalis ATCC29212 = assay: as above; type: cell-based; details: Enterococcus faecalis
Excerpt: as §1

S.aureus Smith = assay: as above; type: cell-based; details: Staphylococcus aureus; S.aureus Smith; read-out: Minimum Inhibitory Concentration (MIC)
Excerpt: as §1

S.typhimurium C4045 = assay: as above; type: cell-based; details: Salmonella enterica; S.typhimurium C4045; read-out: Minimum Inhibitory Concentration (MIC)
Excerpt: as §1

E.coli C4002 = assay: as above; type: cell-based; details: Escherichia coli; E.coli C4002; read-out: Minimum Inhibitory Concentration (MIC)
Excerpt: as §1

P.aeruginosa C4070 = assay: as above; type: cell-based; details: Pseudomonas aeruginosa; P.aeruginosa C4070; read-out: Minimum Inhibitory Concentration (MIC)
Excerpt: as §1

S.marcescens C1052 = assay: as above; type: cell-based; details: Serratia marcescens; S.marcescens C1052; read-out: Minimum Inhibitory Concentration (MIC)
Excerpt: as §1

S.pyogenes C4003 = assay: as above; type: cell-based; details: Streptococcus pyogenes; S.pyogenes C4003; read-out: Minimum Inhibitory Concentration (MIC)
Excerpt: as §1

K.pneumoniae C1040 = assay: as above; type: cell-based; details: Klebsiella pneumoniae; K.pneumoniae C1040; read-out: Minimum Inhibitory Concentration (MIC)
Excerpt: as §1

P.aeruginosa C2027 = assay: as above; type: cell-based; details: Pseudomonas aeruginosa; P.aeruginosa C2027; read-out: Minimum Inhibitory Concentration (MIC)
Excerpt: as §1

E.cloacae C4009 = assay: as above; type: cell-based; details: Enterobacter cloacae; E.cloacae C4009; read-out: Minimum Inhibitory Concentration (MIC)
Excerpt: as §1

P.rettgeri ATCC9919 = assay: as above; type: cell-based; details: Providencia rettgeri; P.rettgeri ATCC9919; read-out: Minimum Inhibitory Concentration (MIC)
Excerpt: as §1

K.oxytoca C4022 = assay: as above; type: cell-based; details: Klebsiella oxytoca; K.oxytoca C4022; read-out: Minimum Inhibitory Concentration (MIC)
Excerpt: as §1

S.aureus C4036 = assay: as above; type: cell-based; details: Staphylococcus aureus; S.aureus C4036; read-out: Minimum Inhibitory Concentration (MIC)
Excerpt: as §1

P.aeruginosa ATCC27853 = assay: as above; type: cell-based; details: Pseudomonas aeruginosa; P.aeruginosa ATCC27853; read-out: Minimum Inhibitory Concentration (MIC)
Excerpt: as §1

S.epidermidis ATCC12228 = assay: as above; type: cell-based; details: Staphylococcus epidermidis; S.epidermidis ATCC12228; read-out: Minimum Inhibitory Concentration (MIC)
Excerpt: as §1

MIC (S.pyogenes ATCC 8668) | MIC (S.marcescens ATCC27117) | MIC (P.aeruginosa ATCC10145) | MIC (P.mirabilis ATCC25933) | MIC (MRSA C2208) | MIC (S.aureus ATCC29213) | MIC (E.coli ATCC25922) | MIC (E.cloacae C4008) | MIC (K.pneumoniae ATCC10031) | MIC (E.coli ATCC10536) | MIC (S.Faecalis ATCC29212) | MIC (S.aureus Smith) | MIC (S.typhimurium C4045) | MIC (E.coli C4002) | MIC (P.aeruginosa C4070) | MIC (S.marcescens C1052) | MIC (S.pyogenes C4003) | MIC (K.pneumoniae C1040) | MIC (P.aeruginosa C2027) | MIC (E.cloacae C4009) | SMILES | also measured
0.013 µg/mL (≈ 0.0245 µM) | 0.007 µg/mL (≈ 0.0132 µM) | 1.56 µg/mL (≈ 2.93 µM) | 0.025 µg/mL (≈ 0.047 µM) | > 100 µg/mL | 1.56 µg/mL (≈ 2.93 µM) | 0.013 µg/mL (≈ 0.0245 µM) | 0.002 µg/mL (≈ 0.00376 µM) | 0.004 µg/mL (≈ 0.00753 µM) | 0.004 µg/mL (≈ 0.00753 µM) | > 100 µg/mL | 1.56 µg/mL (≈ 2.93 µM) | 0.007 µg/mL (≈ 0.0132 µM) | 0.007 µg/mL (≈ 0.0132 µM) | 1.56 µg/mL (≈ 2.93 µM) | 0.025 µg/mL (≈ 0.047 µM) | 0.013 µg/mL (≈ 0.0245 µM) | 0.004 µg/mL (≈ 0.00753 µM) | 0.78 µg/mL (≈ 1.47 µM) | 0.007 µg/mL (≈ 0.0132 µM) | CO/N=C(\C(=O)N[C@@H]1C(=O)N2C(C(=O)[O-])=C(C[n+]3ccc4[nH]c(=O)[nH]c4c3)CS[C@H]12)c1nsc(N)n1 [Ex. 5, 7-β-[(Z)-2-(5-Amino-1,2,4-thiadiazol-3-yl)-2-methoxyiminoacetamido]-3-[2-(1H,3H)-oxo-imidazo[4,5-c]pyridiniummethyl]-3-cephem-4-carboxylate] | half-life [1]: 24 min; MIC (P.rettgeri ATCC9919): 0.007 µg/mL (≈ 0.0132 µM); MIC (K.oxytoca C4022): 0.78 µg/mL (≈ 1.47 µM); MIC (S.aureus C4036): 1.56 µg/mL (≈ 2.93 µM); MIC (P.aeruginosa ATCC27853): 0.78 µg/mL (≈ 1.47 µM); MIC (S.epidermidis ATCC12228): 0.78 µg/mL (≈ 1.47 µM)
0.007 µg/mL (≈ 0.0122 µM) | 0.1 µg/mL (≈ 0.174 µM) | 50 µg/mL (≈ 87.2 µM) | 0.1 µg/mL (≈ 0.174 µM) | > 100 µg/mL | 1.56 µg/mL (≈ 2.72 µM) | 0.1 µg/mL (≈ 0.174 µM) | 0.05 µg/mL (≈ 0.0872 µM) | 0.025 µg/mL (≈ 0.0436 µM) | 0.05 µg/mL (≈ 0.0872 µM) | > 100 µg/mL | 0.78 µg/mL (≈ 1.36 µM) | 0.1 µg/mL (≈ 0.174 µM) | 0.1 µg/mL (≈ 0.174 µM) | > 100 µg/mL | 0.2 µg/mL (≈ 0.349 µM) | 0.007 µg/mL (≈ 0.0122 µM) | 0.025 µg/mL (≈ 0.0436 µM) | 6.25 µg/mL (≈ 10.9 µM) | 0.2 µg/mL (≈ 0.349 µM) | CO/N=C(\C(=O)N[C@@H]1C(=O)N2C(C(=O)[O-])=C(C[n+]3ccc4c(c3)NC(=C[N+](=O)[O-])N4)CS[C@H]12)c1csc(N)n1 [Ex. 1] | MIC (P.rettgeri ATCC9919): 0.013 µg/mL (≈ 0.0227 µM); MIC (K.oxytoca C4022): 6.25 µg/mL (≈ 10.9 µM); MIC (S.aureus C4036): 1.56 µg/mL (≈ 2.72 µM); MIC (P.aeruginosa ATCC27853): 50 µg/mL (≈ 87.2 µM); MIC (S.epidermidis ATCC12228): 0.78 µg/mL (≈ 1.36 µM)
0.1 µg/mL (≈ 0.174 µM) | 0.1 µg/mL (≈ 0.174 µM) | 3.13 µg/mL (≈ 5.44 µM) | 0.05 µg/mL (≈ 0.0869 µM) | > 100 µg/mL | 0.78 µg/mL (≈ 1.36 µM) | 0.05 µg/mL (≈ 0.0869 µM) | 0.013 µg/mL (≈ 0.0226 µM) | 0.013 µg/mL (≈ 0.0226 µM) | 0.013 µg/mL (≈ 0.0226 µM) | > 100 µg/mL | 3.13 µg/mL (≈ 5.44 µM) | 0.05 µg/mL (≈ 0.0869 µM) | 3.13 µg/mL (≈ 5.44 µM) | 6.25 µg/mL (≈ 10.9 µM) | 0.2 µg/mL (≈ 0.347 µM) | 0.196 µg/mL (≈ 0.341 µM) | 0.05 µg/mL (≈ 0.0869 µM) | 3.13 µg/mL (≈ 5.44 µM) | 0.013 µg/mL (≈ 0.0226 µM) | Nc1nc(/C(=N/OCC(=O)O)C(=O)N[C@@H]2C(=O)N3C(C(=O)[O-])=C(C[n+]4ccc5[nH]c(=O)[nH]c5c4)CS[C@H]23)ns1 [Ex. 8, 7-β-[(Z)-2-(5-Amino-1,2,4-thiadiazol-3-yl)-2-carboxymethoxyiminoacetamido]-3-[2-(1H,3H)-oxo-imidazo[4,5-c]pyridiniummethyl]-3-cephem-4-carboxylate] | MIC (P.rettgeri ATCC9919): 0.025 µg/mL (≈ 0.0434 µM); MIC (K.oxytoca C4022): 0.782 µg/mL (≈ 1.36 µM); MIC (S.aureus C4036): 1.56 µg/mL (≈ 2.71 µM); MIC (P.aeruginosa ATCC27853): 3.13 µg/mL (≈ 5.44 µM); MIC (S.epidermidis ATCC12228): 1.56 µg/mL (≈ 2.71 µM)
